Results published in patent publication US9695152B2, “3,4-dihydro-2H-isoquinoline-1-one and 2,3-dihydro-isoindol-1-one compounds” (Hoffmann-La Roche Inc., priority 2013, dated 2017).

How the values were obtained:
[1] = rat, cited from earlier work; for plasma aldosterone: 4 weeks (FAD286), 4 and 8 weeks (spironolactone) of treatment
[2] = rats with experimental heart failure; cited from earlier work
human CYP11B1 = human CYP11B1 (Homo sapiens (Human), UniProt P15538); assay: G-402 cellular enzyme assay, human CYP11B1 (cortisol release, HTRF); format: cell-based; details: G-402 cells expressing human CYP11B1, 1 μM Deoxycortisol
Text: (§1) Herein we identified the use of the G-402 cell line as a host cell to ectopically express (transiently or stably) enzymes of the CYP11 family. Specifically we developed stable G-402 cells expressing ectopically human CYP11B1, human CYP11B2, human CYP11A1, cynmolgus CYP11B1 or cynomolgus CYP11B2 enzyme activity. Importantly the identified cell line G-402 expresses co-factors (adrenodoxin and adrenodoxin reductase) important for the activity of the CYP11 family and no relevant enzyme activity of the CYP11 family (in comparison to H295R cells) was detected in these cells. Therefore the G-402 cell line is uniquely suited as a host cell for the ectopic expression of enzymes from the CYP11 family.
(§2) G-402 cells can be obtained from ATCC (CRL-1440) and were originally derived from a renal leiomyoblastoma.
(§3) The expression plasmids contains the ORF for either human/cyno CYP11B1 or CYP11B2 under the control of a suitable promoter (CMV-promoter) and a suitable resistance marker (neomycin). Using standard techniques the expression plasmid is transfected into G-402 cells and these cells are then selected for expressing the given resistance markers. Individual cell-clones are then selected and assessed for displaying the desired enzymatic activity using 11-Deoxycorticosterone (Cyp11B2) or 11-Deoxycortisol (Cyp11B1) as a substrate.
(§4) G-402 cells expressing CYP11 constructs were established as described above and maintained in McCoy's 5a Medium Modified, ATCC Catalog No. 30-2007 containing 10% FCS and 400 μg/ml G418 (Geneticin) at 37° C. under an atmosphere of 5% CO2/95% air. Cellular enzyme assays were performed in DMEM/F12 medium containing 2.5% charcoal treated FCS and appropriate concentration of substrate (0.3-10 uM 11-Deoxycorticosterone, 11-Deoxycortisol or Corticosterone). For assaying enzymatic activity, cells were plated onto 96 well plates and incubated for 16 h. An aliquot of the supernatant is then transferred and analyzed for the concentration of the expected product (Aldosterone for CYP11B2; Cortisol for CYP11B1). The concentrations of these steroids can be determined using HTRF assays from CisBio analyzing either Aldosterone or Cortisol.
(§5) Inhibition of the release of produced steroids can be used as a measure of the respective enzyme inhibition by test compounds added during the cellular enzyme assay. The dose dependent inhibition of enzymatic activity by a compound is calculated by means of plotting added inhibitor concentrations (x-axes) vs. measured steroid/product level (y-axes). The inhibition is then calculated by fitting the following 4-parameter sigmoidal function (Morgan-Mercer-Flodin (MMF) model) to the raw data points using the least squares method:
(§6) [formula] wherein, A is the maximum y value, B is the EC50 factor determined using XLFit, C is the minimum y value and D is the slope value.
(§7) EC50 values for compounds claimed herein were tested with the G402-based assay system described. Cyp11B2 enzyme activity was tested in presence of 1 μM Deoxycorticosterone and variable amounts of inhibitors; Cyp11B1 enzyme activity was tested in presence of 1 μM Deoxycortisol and variable amounts of inhibitors.

CYP11B2 [3] = molecular target: T1, CYP11B2 (Homo sapiens (Human), UniProt P19099); assay: G-402 cellular enzyme assay, human CYP11B2 (aldosterone release, HTRF); format: cell-based; details: G-402 cells expressing human CYP11B2, 1 μM Deoxycorticosterone
Text: as §1, §2, §3, §4, §5, §6, §7

CYP11B2 [4] = molecular target: T1, CYP11B2; details: patients with primary aldosteronism, cited from earlier work

T1 sequence (P19099 25-503): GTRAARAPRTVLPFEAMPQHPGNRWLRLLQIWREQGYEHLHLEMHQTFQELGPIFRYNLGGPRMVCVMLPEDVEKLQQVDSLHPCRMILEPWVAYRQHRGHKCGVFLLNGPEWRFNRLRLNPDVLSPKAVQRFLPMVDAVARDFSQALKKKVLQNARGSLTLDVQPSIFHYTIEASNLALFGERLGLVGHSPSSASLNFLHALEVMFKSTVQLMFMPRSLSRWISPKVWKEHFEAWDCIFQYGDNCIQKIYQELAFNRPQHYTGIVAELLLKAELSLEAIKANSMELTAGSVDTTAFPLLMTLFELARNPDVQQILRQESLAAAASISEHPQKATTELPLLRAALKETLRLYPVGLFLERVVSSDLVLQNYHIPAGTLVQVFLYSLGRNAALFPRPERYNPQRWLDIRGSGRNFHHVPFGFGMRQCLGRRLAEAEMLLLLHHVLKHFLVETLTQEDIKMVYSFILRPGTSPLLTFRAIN
human CYP11B1, sequence (P15538 25-503): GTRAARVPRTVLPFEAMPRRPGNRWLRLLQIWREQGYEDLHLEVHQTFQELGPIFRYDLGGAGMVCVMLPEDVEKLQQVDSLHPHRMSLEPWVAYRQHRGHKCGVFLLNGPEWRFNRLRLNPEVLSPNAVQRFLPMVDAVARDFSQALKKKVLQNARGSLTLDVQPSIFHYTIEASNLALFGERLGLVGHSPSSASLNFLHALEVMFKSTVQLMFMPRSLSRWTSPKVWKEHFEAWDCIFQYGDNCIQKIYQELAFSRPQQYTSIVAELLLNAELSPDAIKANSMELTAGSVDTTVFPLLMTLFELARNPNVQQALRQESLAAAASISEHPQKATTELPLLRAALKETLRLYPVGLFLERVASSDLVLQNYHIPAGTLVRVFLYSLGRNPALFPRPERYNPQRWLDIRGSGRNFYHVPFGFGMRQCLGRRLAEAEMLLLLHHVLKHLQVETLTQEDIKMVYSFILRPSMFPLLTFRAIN

Row | SMILES | EC50 (human CYP11B1) [µM] | EC50 (CYP11B2 [3]) [µM] | further results
1 | CC(=O)S[C@@H]1CC2=CC(=O)CC[C@]2(C)[C@H]2CC[C@@]3(C)[C@@H](CC[C@@]34CCC(=O)O4)[C@H]12 [spironolactone] | – | – | plasma aldosterone [1]: increased; angiotensin II and salt-stimulated PAI-1 mRNA expression in the aorta and the heart [1]: enhanced
2 | N#Cc1ccc([C@H]2CCCc3cncn32)cc1 [FAD286] | – | – | plasma aldosterone [1]: reduced; angiotensin II and salt-stimulated PAI-1 mRNA expression in the aorta and the heart [1]: not; blood pressure and cardiovascular function and structure [2]: improved
3 | Cc1ccncc1C(=O)N1CC2(CC(Nc3cncc(N4C(=O)c5ccc(Cl)cc5C4(C)C)c3)C2)C1 [Example 19, 5-Chloro-3,3-dimethyl-2-[5-[[2-(4-methylpyridine-3-carbonyl)-2-azaspiro[3.3]heptan-6-yl]amino]pyridin-3-yl]isoindol-1-one] | 10.9 | 0.086 | –
4 | N#Cc1ccc([C@H]2CCc3cncn32)c(F)c1 [LCI699] | – | – | circulating aldosterone levels (CYP11B2 [4]; oral): significantly lower; blood pressure (CYP11B2 [4]): mildly decreased; hypokalemia (CYP11B2 [4]): corrected
5 | CC1(C)c2cc(Cl)ccc2C(=O)N1c1cncc(NC2CCCN(S(=O)(=O)C3CC3)C2)c1 (single isomer, unassigned; (-)) [Example 8, (−)-5-Chloro-2-[5-[[3S or 3R)-1-cyclopropylsulfonylpiperidin-3-yl]amino]pyridin-3-yl]-3,3-dimethylisoindol-1-one] | 19.5 | 0.365 | –

More lines, main results first:

Row | EC50 (human CYP11B1) [µM] | EC50 (CYP11B2 [3]) [µM] | SMILES | further results
6 | 0.297 | 0.007 | CC1(C)c2cc(Cl)ccc2C(=O)N1c1cncc(NC2CN(C(=O)c3ncccc3Cl)C2)c1 [Example 9, 5-Chloro-2-[5-[[1-(3-chloropyridine-2-carbonyl)azetidin-3-yl]amino]pyridin-3-yl]-3,3-dimethylisoindol-1-one] | –
7 | 6.14 | 0.027 | Cc1ccncc1C(=O)N1CC(Nc2cncc(N3C(=O)c4ccc(C#N)cc4C3(C)C)c2)C1 [Example 32, 3,3-Dimethyl-2-[5-[[1-(4-methylpyridine-3-carbonyl)azetidin-3-yl]amino]-3-pyridyl]-1-oxo-isoindoline-5-carbonitrile] | –
8 | 1.2 | 0.031 | CC1(C)c2cc(C#N)ccc2C(=O)N1c1cncc(NC2CN(C(=O)c3ncccc3Cl)C2)c1 [Example 38, 2-[5-[[1-(3-Chloropyridine-2-carbonyl)azetidin-3-yl]amino]-3-pyridyl]-3,3-dimethyl-1-oxo-isoindoline-5-carbonitrile] | –
9 | 2.89 | 0.131 | CC1c2cc(Cl)ccc2C(=O)N1c1cncc(NC2CN(S(=O)(=O)C3CC3)C2)c1 (stereo not shown) [Example 14, 5-Chloro-2-[5-[(1-cyclopropylsulfonylazetidin-3-yl)amino]pyridin-3-yl]-3-methyl-3H-isoindol-1-one] | –
10 | 0.056 | 0.002 | CN(c1cncc(N2C(=O)c3ccc(Cl)cc3C2(C)C)c1)C1CCN(S(=O)(=O)C2CC2)C1 (single isomer, unassigned; (+)) [Example 4, (+)-5-Chloro-2-[5-[[(3R or 3S)-1-cyclopropylsulfonylpyrrolidin-3-yl]-methylamino]pyridin-3-yl]-3,3-dimethylisoindol-1-one] | –
